In a compilation of properties of binary mixtures (doi:10.1016/j.molliq.2016.01.085):

Test: xn = mol fraction of the nth substance listed
Details: 101 kPa

CCCOCCO + CCCC[n+]1ccn(C)c1.F[P-](F)(F)(F)(F)F
speed of sound [m/s]
Details	x1 = 0.1468	x1 = 0.1945	x1 = 0.3063	x1 = 0.3953	x1 = 0.5119	x1 = 0.6168	x1 = 0.702	x1 = 0.8043	x1 = 0.8873	x1 = 1
298.15 K	1431.8	1427.1	1414	–	1384.2	1366.5	–	1331.5	1316.4	–
303.15 K	1419	1414	–	1387.9	1369.3	1351	1334.9	–	1299.9	1283.7
308.15 K	1406.6	–	1387.1	1374.1	1354.7	1335.6	1319.1	–	1283.5	1266.4
313.15 K	1394.5	1389.3	1374.4	1360.8	1340.3	1320.3	–	1283.2	1267.2	1249.2
318.15 K	1382.8	1377.1	1361.6	1347.3	–	–	1288.1	1267.3	1250.9	1231.9
323.15 K	–	1365.3	1349.2	1334.2	1312	–	1272.7	1251.5	1234.9	1215

CCCC[n+]1ccn(C)c1.F[P-](F)(F)(F)(F)F + CCCOCCO
x2 = 0
Details	speed of sound [m/s]
298.15 K	1443.8
308.15 K	1419.8
323.15 K	1385.6
